Source: patent publication US10813944B2, “Cyclodextrins as procoagulants” (STICHTING SANQUIN BLOEDVOORZIENING, priority 2016, dated 2020)

System: thrombin generation in pooled normal plasma spiked with anticoagulants
Assay: Thrombin generation assay in pooled normal plasma spiked with anticoagulants
Assay type: biochemical, human
Details: 1 pM TF
Protocol: FIGS. 3-8, 12, 14-19 and 22-27: Pooled normal plasma was spiked with cyclodextrins (100 μM, unless otherwise indicated) and anticoagulants. The concentrations of the anticoagulants were 100 ng/ml for dabigatran (A), 100 ng/ml for rivaroxaban (B), 60 ng/ml for apixaban (C), 60 ng/ml for edoxaban (D). The plasmas were subjected to thrombin generation analysis as described in the Materials and Methods section with 1 pM tissue factor (TF) as initiator of coagulation.
FIG. 9: Pooled normal plasma was spiked with OKL-1111 (100 μM, unless otherwise indicated (A)) and anticoagulants (B-E). The concentrations of the anticoagulants were 100 ng/ml for dabigatran (B), 100 ng/ml for rivaroxaban (C), 60 ng/ml for apixaban (D), 60 ng/ml for edoxaban (E). The plasmas were subjected to thrombin generation analysis as described in the Materials and Methods section with 1 pM tissue factor (TF) as initiator of coagulation.
FIG. 10: Pooled normal plasma was spiked with OKL-1111 (100 μM) and anticoagulants (A-F). The concentrations of the anticoagulants were 2 μg/ml for fondaparinux (A), 0.4 U/ml for nadroparin (B), 0.1 U/ml for tinzaparin (C), 0.03 U/ml for unfractionated heparin (UFH) (D), 0.5 U/ml for hirudin (E) and 10 μg/ml for bivalirudin (F). The plasmas were subjected to thrombin generation analysis as described in the Materials and Methods section with 1 pM tissue factor (TF) as initiator of coagulation.
The Calibrated Automated Thrombogram® assays the generation of thrombin in clotting plasma using a microtiter plate reading fluorometer (Fluoroskan Ascent, ThermoLab systems, Helsinki, Finland) and Thrombinoscope® software (Thrombinoscope BV, Maastricht, The Netherlands). The assay was carried out as described by Hemker et al. (Pathofysiol. IIaemost. Thromb. 2003, 33, 4-15), and the Thrombinoscope® manual. Coagulation was triggered by recalcification in the presence of 1 or 5 pM recombinant human tissue factor (Innovin®, Siemens, Marburg, Germany), 4 μM phospholipids, and 417 μM fluorogenic substrate Z-Gly-Gly-Arg-AMC (Bachem, Bubendorf, Switzerland). Fluorescence was monitored using the Fluoroskan Ascent fluorometer (ThermoLabsystems, Helsinki, Finland), and the lag time, peak thrombin, velocity index and area under the curve (ETP) were calculated using the Thrombinoscope® software (Thrombinoscope BV).

## O=C(O)CCCCCSCC1OC2OC3C(CSCCCCCC(=O)O)OC(OC4C(CSCCCCCC(=O)O)OC(OC5C(CSCCCCCC(=O)O)OC(OC6C(CSCCCCCC(=O)O)OC(OC7C(CSCCCCCC(=O)O)OC(OC8C(CSCCCCCC(=O)O)OC(OC9C(CSCCCCCC(=O)O)OC(OC1C(O)C2O)C(O)C9O)C(O)C8O)C(O)C7O)C(O)C6O)C(O)C5O)C(O)C4O)C(O)C3O (stereo not drawn) [OKL-1111]
UFH 0.03 U/ml, OKL-1111 100 μM
  restoring thrombin generation in plasma anticoagulated with unfractionated heparin: capable of restoring thrombin generation
Apixaban 60 ng/ml, cyclodextrin 100 μM
  effect on the anticoagulant effect of apixaban: restoration of thrombin generation to levels far above that of non-anticoagulated plasma
Bivalirudin 10 μg/ml, OKL-1111 100 μM
  restoring thrombin generation in plasma anticoagulated with bivalirudin: capable of restoring thrombin generation
Dabigatran 100 ng/ml, cyclodextrin 100 μM
  effect on the anticoagulant effect of dabigatran: restoration of thrombin generation to levels far above that of non-anticoagulated plasma
Edoxaban 60 ng/ml, cyclodextrin 100 μM
  effect on the anticoagulant effect of edoxaban: restoration of thrombin generation to levels far above that of non-anticoagulated plasma
Fondaparinux 2 μg/ml, OKL-1111 100 μM
  restoring thrombin generation in plasma anticoagulated with pentasaccharide (arixtra): capable of restoring thrombin generation
Hirudin 0.5 U/ml, OKL-1111 100 μM
  restoring thrombin generation in plasma anticoagulated with hirudin: capable of restoring thrombin generation
Nadroparin 0.4 U/ml, tinzaparin 0.1 U/ml, OKL-1111 100 μM
  restoring thrombin generation in plasma anticoagulated with low molecular weight heparin: capable of restoring thrombin generation
Rivaroxaban 100 ng/ml, cyclodextrin 100 μM
  effect on the anticoagulant effect of rivaroxaban: restoration of thrombin generation to levels far above that of non-anticoagulated plasma
